Test results as given in PubChem BioAssay (NCI).
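Briefly, cells in 96-well plates were exposed to five compound concentrations for 48 h, and endpoints were estimated by linear interpolation. Abbreviation: GI50, concentration required for 50% inhibition of growth. TGI: concentration producing complete growth inhibition.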

What was measured:
Assay in all cases: NCI tumour cell line growth inhibition, 48 h
SK-MEL-5 melanoma = test system: SK-MEL-5 melanoma
LOX IMVI melanoma = test system: LOX IMVI melanoma
MOLT-4 leukemia = test system: MOLT-4 leukemia
OVCAR-4 ovarian = test system: OVCAR-4 ovarian
RPMI-8226 leukemia = test system: RPMI-8226 leukemia
NCI-H226 lung = test system: NCI-H226 lung
OVCAR-3 ovarian = test system: OVCAR-3 ovarian
K-562 leukemia = test system: K-562 leukemia
MCF7 breast = test system: MCF7 breast
786-0 renal = test system: 786-0 renal
NCI-H23 lung = test system: NCI-H23 lung
SNB-75 CNS = test system: SNB-75 CNS
HOP-92 NSCLC = test system: HOP-92 NSCLC
HT29 colon = test system: HT29 colon
T-47D breast = test system: T-47D breast
EKVX NSCLC = test system: EKVX NSCLC
MDA-MB-231 breast = test system: MDA-MB-231 breast
TK-10 renal = test system: TK-10 renal
COLO 205 colon = test system: COLO 205 colon
NCI-H522 lung = test system: NCI-H522 lung
NCI-H460 lung = test system: NCI-H460 lung
SF-268 CNS = test system: SF-268 CNS
NCI/ADR-RES ovarian = test system: NCI/ADR-RES ovarian
A498 renal = test system: A498 renal
PC-3 prostate = test system: PC-3 prostate
M14 melanoma = test system: M14 melanoma
MALME-3M melanoma = test system: MALME-3M melanoma
HS 578T breast = test system: HS 578T breast
SF-295 CNS = test system: SF-295 CNS
SW-620 colon = test system: SW-620 colon
HOP-62 NSCLC = test system: HOP-62 NSCLC
CAKI-1 renal = test system: CAKI-1 renal
CCRF-CEM leukemia = test system: CCRF-CEM leukemia
DU-145 prostate = test system: DU-145 prostate
A549 NSCLC = test system: A549 NSCLC
UO-31 renal = test system: UO-31 renal
OVCAR-8 ovarian = test system: OVCAR-8 ovarian
BT-549 breast = test system: BT-549 breast
IGROV1 ovarian = test system: IGROV1 ovarian
MDA-MB-435 = test system: MDA-MB-435
SF-539 CNS = test system: SF-539 CNS
UACC-62 melanoma = test system: UACC-62 melanoma
SNB-19 CNS = test system: SNB-19 CNS
ACHN renal = test system: ACHN renal
SR leukemia = test system: SR leukemia
HCT-15 colon = test system: HCT-15 colon
SK-MEL-28 melanoma = test system: SK-MEL-28 melanoma
SN12C renal = test system: SN12C renal
SK-MEL-2 melanoma = test system: SK-MEL-2 melanoma
HCT-116 colon = test system: HCT-116 colon
U251 CNS = test system: U251 CNS
KM12 colon = test system: KM12 colon
RXF 393 renal = test system: RXF 393 renal
OVCAR-5 ovarian = test system: OVCAR-5 ovarian
UACC-257 melanoma = test system: UACC-257 melanoma

## COc1cc2c(/C=C3\C(=O)N(C)c4ccc(O)cc43)c[nH]c2cc1C
SK-MEL-5 melanoma
  GI50: 3.87 µM
  TGI: 13.2 µM
LOX IMVI melanoma
  GI50: 2.36 µM
  TGI: > 100 µM
MOLT-4 leukemia
  GI50: 3.3 µM
  TGI: 10.6 µM
OVCAR-4 ovarian
  GI50: 5.3 µM
  TGI: > 100 µM
RPMI-8226 leukemia
  GI50: 3.54 µM
  TGI: 17.2 µM
NCI-H226 lung
  GI50: 31.1 µM
  TGI: 75.4 µM
OVCAR-3 ovarian
  GI50: 3.86 µM
  TGI: 22.6 µM
K-562 leukemia
  GI50: 4.67 µM
  TGI: > 100 µM
MCF7 breast
  GI50: 2.28 µM
  TGI: 7.35 µM
786-0 renal
  GI50: 3.95 µM
  TGI: 21 µM
NCI-H23 lung
  GI50: 8.77 µM
  TGI: 38.2 µM
SNB-75 CNS
  GI50: 5.7 µM
  TGI: 37 µM
HOP-92 NSCLC
  GI50: 14.3 µM
  TGI: 34.3 µM
HT29 colon
  GI50: 3.67 µM
  TGI: > 100 µM
T-47D breast
  GI50: 4.05 µM
  TGI: 39.7 µM
EKVX NSCLC
  GI50: 4.58 µM
  TGI: 24.1 µM
MDA-MB-231 breast
  GI50: 10.9 µM
  TGI: 44.5 µM
TK-10 renal
  GI50: 6.04 µM
  TGI: 32.6 µM
COLO 205 colon
  GI50: 3.7 µM
  TGI: 16.8 µM
NCI-H522 lung
  GI50: 1.47 µM
  TGI: 5.2 µM
NCI-H460 lung
  GI50: 2.62 µM
  TGI: 7.79 µM
SF-268 CNS
  GI50: 5.29 µM
  TGI: 46.4 µM
NCI/ADR-RES ovarian
  GI50: 4.17 µM
  TGI: 25.9 µM
A498 renal
  GI50: 20.8 µM
  TGI: 39.6 µM
PC-3 prostate
  GI50: 3.5 µM
  TGI: 15.6 µM
M14 melanoma
  GI50: 2.9 µM
  TGI: 8.4 µM
MALME-3M melanoma
  GI50: 2.44 µM
  TGI: 7.08 µM
HS 578T breast
  GI50: 4.33 µM
  TGI: > 100 µM
SF-295 CNS
  GI50: 2.64 µM
  TGI: 17.3 µM
SW-620 colon
  GI50: 3.83 µM
  TGI: 34 µM
HOP-62 NSCLC
  GI50: 5.98 µM
  TGI: 20.1 µM
CAKI-1 renal
  GI50: 3.79 µM
  TGI: 22.2 µM
CCRF-CEM leukemia
  GI50: 3.35 µM
  TGI: 35.9 µM
DU-145 prostate
  GI50: 3.56 µM
  TGI: 16.1 µM
A549 NSCLC
  GI50: 3.05 µM
  TGI: 18.1 µM
UO-31 renal
  GI50: 3.07 µM
  TGI: 12.6 µM
OVCAR-8 ovarian
  GI50: 3.38 µM
  TGI: 14.5 µM
BT-549 breast
  GI50: 1.86 µM
  TGI: 5.44 µM
IGROV1 ovarian
  GI50: 3.7 µM
  TGI: 22.3 µM
MDA-MB-435
  GI50: 0.373 µM
  TGI: 1.5 µM
SF-539 CNS
  GI50: 1.56 µM
  TGI: 3.74 µM
UACC-62 melanoma
  GI50: 9.73 µM
  TGI: 30.3 µM
SNB-19 CNS
  GI50: 6.16 µM
  TGI: 52.9 µM
ACHN renal
  GI50: 3.42 µM
  TGI: 26.6 µM
SR leukemia
  GI50: 2.88 µM
  TGI: > 100 µM
HCT-15 colon
  GI50: 4.75 µM
  TGI: 67.8 µM
SK-MEL-28 melanoma
  GI50: 2.99 µM
  TGI: 28.1 µM
SN12C renal
  GI50: 14.6 µM
  TGI: 47.2 µM
SK-MEL-2 melanoma
  GI50: 2.12 µM
  TGI: 6.33 µM
HCT-116 colon
  GI50: 3.16 µM
  TGI: 16 µM
U251 CNS
  GI50: 3.35 µM
  TGI: 32.2 µM
KM12 colon
  GI50: 0.854 µM
  TGI: 3.52 µM
RXF 393 renal
  GI50: 4.89 µM
  TGI: 45.2 µM
OVCAR-5 ovarian
  GI50: 22 µM
  TGI: 42.5 µM
UACC-257 melanoma
  GI50: 2.54 µM
  TGI: 7.01 µM
